The results in this text go back to publication PMC11614110, “Crystal structure of a short-chain dehydrogenase from Burkholderia cenocepacia J2315 in complex with NADP^+ and benzoic acid” (Acta Crystallographica Section F: Structural Biology …, 2024).

The target of series [1] is T1, BcSDR (short-chain dehydrogenase reductase from B. cenocepacia J2315) (Burkholderia cenocepacia, UniProt B4EFS5).
T1 construct: gene BCAM2128; vector pBG1861; expressed in E. coli BL21(DE3) R3 Rosetta; homodimer
T1 sequence (B4EFS5 1-237): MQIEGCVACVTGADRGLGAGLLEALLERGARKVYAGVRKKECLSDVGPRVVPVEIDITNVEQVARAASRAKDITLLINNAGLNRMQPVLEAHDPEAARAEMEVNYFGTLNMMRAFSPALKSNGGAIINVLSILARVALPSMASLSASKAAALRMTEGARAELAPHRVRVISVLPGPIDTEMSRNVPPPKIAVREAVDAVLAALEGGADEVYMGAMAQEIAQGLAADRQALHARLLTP
Put plainly: X-ray crystal structure, […] A. It is filed as binding. The note with it: pH 4.2, 290 K.

Series [2] concerns the molecule itself. Put plainly: crystal structure; sitting-drop vapor diffusion, 290 K; 23.45 mg/ml protein, 5 mM NADP+; 40% PEG 300, 100 mM sodium phosphate dibasic/citric acid pH 4.2; space group P212121, two molecules per asymmetric unit; dimer assignment supported by PDBePISA.

As for `NC(=O)c1ccc[n+]([C@@H]2O[C@H](COP(=O)(O)OP(=O)(O)OC[C@H]3O[C@@H](n4cnc5c(N)ncnc54)[C@H](OP(=O)(O)O)[C@@H]3O)[C@@H](O)[C@H]2O)c1` [NADP^+], in series [1] (5 mM NADP+ in co-crystallization drop, coenzyme site, both chains), the “X-ray crystal structure, 1.40 A” value is listed as “The structure of BcSDR showed clear electron density for NADP^+ in the coenzyme-binding site”. As for `O=C(O)c1ccccc1` [benzoic acid], the “X-ray crystal structure, 1.40 A” value in series [1] (not added, co-purified ligand, active site, NADP+ bound) is given as “BcSDR co-crystallized with a molecule of benzoic acid bound in the active site”.

B1: short-chain dehydrogenase reductase (SDR) from Burkholderia cenocepacia J2315 (enzyme, Burkholderia cenocepacia (strain J2315))
chain: T1 sequence (B4EFS5 1-237)
notes: putative short-chain dehydrogenase reductase, Burkholderia cenocepacia J2315, UniProt B4EFS5; full-length gene stated to encode amino acids 1-237; Crystallised with NADP+ and a benzoic acid ligand; a phosphate ion lies at the dimer interface; also called BcSDR; His-BcSDR; source: Escherichia coli BL21(DE3) R3 Rosetta, purified (Ni2+ IMAC, SEC on Superdex 75); not shown: His6, N-terminal, kept
As to B1, in series [2], the binding result was “binds”.
